{"source": "paper PMC223355", "about": "(BMC Biochemistry, 2003)", "key": {"kynureninase [1]": {"target": "T1, kynureninase (Pseudomonas fluorescens, UniProt P83788)", "T1 sequence (P83788 1-416)": "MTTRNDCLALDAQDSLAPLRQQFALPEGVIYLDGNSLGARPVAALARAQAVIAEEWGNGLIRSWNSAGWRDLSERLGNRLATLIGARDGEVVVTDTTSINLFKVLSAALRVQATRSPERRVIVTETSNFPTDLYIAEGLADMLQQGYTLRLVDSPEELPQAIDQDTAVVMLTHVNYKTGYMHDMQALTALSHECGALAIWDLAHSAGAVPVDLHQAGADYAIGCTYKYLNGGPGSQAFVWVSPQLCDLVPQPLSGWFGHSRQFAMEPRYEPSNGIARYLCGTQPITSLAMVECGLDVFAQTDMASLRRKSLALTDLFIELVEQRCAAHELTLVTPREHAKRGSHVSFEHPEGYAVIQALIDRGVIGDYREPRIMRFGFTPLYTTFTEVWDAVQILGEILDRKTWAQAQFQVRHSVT", "settings": "as substrate of the Pseudomonas enzyme; cited from earlier work"}, "rat hepatic kynureninase": {"target": "T2, rat hepatic kynureninase (Rattus norvegicus, UniProt P70712)", "T2 sequence (P70712 1-464)": "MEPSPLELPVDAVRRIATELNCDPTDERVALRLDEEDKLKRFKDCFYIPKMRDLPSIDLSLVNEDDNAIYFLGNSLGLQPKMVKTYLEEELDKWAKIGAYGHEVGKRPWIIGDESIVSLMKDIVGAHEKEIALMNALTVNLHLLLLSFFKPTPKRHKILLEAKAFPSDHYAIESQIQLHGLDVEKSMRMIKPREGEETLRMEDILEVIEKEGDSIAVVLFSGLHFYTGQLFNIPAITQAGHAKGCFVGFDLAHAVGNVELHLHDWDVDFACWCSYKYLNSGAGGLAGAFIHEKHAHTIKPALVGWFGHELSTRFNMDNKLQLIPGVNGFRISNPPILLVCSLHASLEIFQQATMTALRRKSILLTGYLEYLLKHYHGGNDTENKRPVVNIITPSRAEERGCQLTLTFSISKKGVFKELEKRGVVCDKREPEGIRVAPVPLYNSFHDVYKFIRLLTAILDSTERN", "settings": "cited from earlier work"}, "kynureninase [2]": {"target": "T1, kynureninase", "assay": "Inhibition / kinetics of tryptophan-induced bacterial kynureninase", "format": "biochemical"}, "[3]": {"target": "T3, recombinant human kynureninase (Homo sapiens, UniProt Q16719)", "T3 sequence (Q16719 1-465)": "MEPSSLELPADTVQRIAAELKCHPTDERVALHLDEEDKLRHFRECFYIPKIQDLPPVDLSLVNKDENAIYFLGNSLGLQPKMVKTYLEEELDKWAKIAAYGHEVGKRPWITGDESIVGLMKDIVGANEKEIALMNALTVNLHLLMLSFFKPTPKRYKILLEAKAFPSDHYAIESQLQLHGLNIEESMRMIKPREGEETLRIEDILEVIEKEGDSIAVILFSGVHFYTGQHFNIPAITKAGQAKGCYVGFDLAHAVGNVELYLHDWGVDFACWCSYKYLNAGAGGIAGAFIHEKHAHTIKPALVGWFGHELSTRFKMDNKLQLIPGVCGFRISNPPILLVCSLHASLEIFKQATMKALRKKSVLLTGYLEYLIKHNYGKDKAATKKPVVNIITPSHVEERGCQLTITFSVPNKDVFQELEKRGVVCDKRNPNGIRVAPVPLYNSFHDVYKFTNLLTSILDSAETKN", "settings": "cited from earlier work"}, "[4]": {"target": "T3, recombinant human kynureninase", "assay": "Inhibition / kinetics of recombinant human kynureninase", "format": "biochemical", "settings": "as substrate of the human enzyme"}}, "note": "Where two headings read alike, the source gives them in different places.", "data": [{"compound": "Nc1ccccc1C(=O)C[C@H](N)C(=O)O", "note": "[L-kynurenine]", "values": [{"measurement": "Km", "setting": "kynureninase [1]", "value": 44.2, "unit": "µM"}, {"measurement": "Km", "setting": "rat hepatic kynureninase; as substrate of the rat enzyme, reported values, no reference given", "value": 500, "unit": "µM"}]}, {"compound": "Nc1ccccc1C(=O)CCC(=O)O", "note": "[desaminokynurenine]", "values": [{"measurement": "Ki", "setting": "kynureninase [2]; bacterial enzyme, unpublished results of the authors", "value": "12 ± 3.1", "unit": "µM"}, {"measurement": "type of inhibition", "setting": "kynureninase [2]; bacterial kynureninase, Lineweaver-Burk and Dixon plots", "value": "mixed inhibitor"}]}, {"compound": "Nc1c(O)cc(O)cc1C(=O)CCC(=O)O", "note": "[dihydroxydesamino derivative, 3,5-dihydroxydesaminokynurenine]", "values": [{"measurement": "Ki", "setting": "[3]; recombinant human enzyme (both mammalian enzymes), earlier report", "value": "~0.25", "unit": "µM"}, {"measurement": "Ki", "setting": "rat hepatic kynureninase; rat enzyme (both mammalian enzymes), earlier report", "value": "~0.25", "unit": "µM"}]}, {"compound": "Nc1ccccc1C(=O)CC(N)C(=O)O", "note": "[kynurenine D-enantiomer, kynurenine]", "values": [{"measurement": "Ki", "setting": "[3]; human enzyme (by context)", "value": 12, "unit": "µM"}]}, {"compound": "Nc1ccccc1C(=O)CC(N)C(=O)O", "note": "(centres unmarked) [kynurenine]", "values": [{"measurement": "substrate activity", "setting": "[4]", "value": "no appreciable substrate activity"}]}]}
